Measured values from ChEMBL document CHEMBL2069212, “Identification and in vivo and in vitro characterization of long acting and melanocortin 4 receptor (MC4-R) selective α-melanocyte-stimulating hormone (α-MSH) analogues” (J Med Chem, 2012).
Calls of active or inactive are those of the source. The rule behind the calls is not given here.

How the values were obtained:
Rattus norvegicus [1] = experiment: Antiobesity activity in Sprague-Dawley rat assessed as reduction of food intake at 3 mg/kg, sc qd measured after 7 to 24 hrs relative to control; type: functional; set-up: scale not given: the % may be the effect or the level left; details: route subcutaneous
Rattus norvegicus [2] = experiment: Antiobesity activity in Sprague-Dawley rat assessed as reduction of food intake at 3 mg/kg, sc qd measured after 24 to 48 hrs relative to control; type: functional; details: route subcutaneous
Rattus norvegicus [3] = experiment: Antiobesity activity in Sprague-Dawley rat assessed as reduction of food intake at 3 mg/kg, sc qd measured up to 7 hrs relative to control; type: functional; set-up: scale not given: the % may be the effect or the level left; details: route subcutaneous
[4] = biological target: Melanocortin receptor 4 (Rattus norvegicus) (UniProt P70596); experiment: Agonist activity at rat MC4 receptor; type: functional
Chain of Melanocortin receptor 4 (Rattus norvegicus) (P70596 whole entry): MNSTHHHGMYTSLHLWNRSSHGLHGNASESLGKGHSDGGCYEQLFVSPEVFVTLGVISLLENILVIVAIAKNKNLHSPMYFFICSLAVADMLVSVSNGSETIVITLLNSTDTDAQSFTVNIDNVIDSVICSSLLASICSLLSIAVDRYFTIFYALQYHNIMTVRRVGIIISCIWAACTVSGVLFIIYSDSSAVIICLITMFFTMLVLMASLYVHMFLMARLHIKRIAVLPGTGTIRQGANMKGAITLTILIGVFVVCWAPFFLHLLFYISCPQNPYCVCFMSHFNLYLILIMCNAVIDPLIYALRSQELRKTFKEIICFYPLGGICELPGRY

[5] = biological target: Melanocyte-stimulating hormone receptor (Homo sapiens, UniProt Q01726); experiment: Displacement of [125I]-NAD-alpha-MSH from human recombinant MC1 receptor expressed in BHK570 cells after 90 mins in presence of ovalbumin; type: cell-based
Chain of Melanocyte-stimulating hormone receptor (Q01726 whole entry): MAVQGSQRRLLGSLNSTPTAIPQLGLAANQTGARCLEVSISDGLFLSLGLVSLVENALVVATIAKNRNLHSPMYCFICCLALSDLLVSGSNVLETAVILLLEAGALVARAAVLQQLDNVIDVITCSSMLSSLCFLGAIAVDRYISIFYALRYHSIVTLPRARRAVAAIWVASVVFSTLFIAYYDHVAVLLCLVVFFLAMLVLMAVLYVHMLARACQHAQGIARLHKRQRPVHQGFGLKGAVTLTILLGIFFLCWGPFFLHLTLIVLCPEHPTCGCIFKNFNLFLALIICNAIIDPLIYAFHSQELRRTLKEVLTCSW

Melanocortin receptor 3 = Melanocortin receptor 3 (Homo sapiens, UniProt P41968); experiment: Displacement of [125I]-NAD-alpha-MSH from human recombinant MC3 receptor expressed in BHK570 cells after 1 hr in presence of ovalbumin; type: cell-based
Chain of Melanocortin receptor 3 (P41968 whole entry): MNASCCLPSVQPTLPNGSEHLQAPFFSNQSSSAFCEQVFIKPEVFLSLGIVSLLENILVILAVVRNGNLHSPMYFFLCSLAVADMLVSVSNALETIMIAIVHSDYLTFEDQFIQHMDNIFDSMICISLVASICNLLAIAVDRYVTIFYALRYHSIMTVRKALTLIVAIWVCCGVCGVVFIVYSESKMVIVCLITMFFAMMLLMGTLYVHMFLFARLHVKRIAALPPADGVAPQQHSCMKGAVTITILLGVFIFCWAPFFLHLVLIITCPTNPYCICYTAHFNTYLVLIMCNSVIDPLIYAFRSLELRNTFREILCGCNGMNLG

Melanocortin receptor 4 [6] = biological target: T1, Melanocortin receptor 4 (Homo sapiens, UniProt P32245); experiment: Displacement of [125I]-NAD-alpha-MSH from MC4 receptor after 2 hrs by gamma counting in presence of ovalbumin
T1 sequence (P32245 whole entry): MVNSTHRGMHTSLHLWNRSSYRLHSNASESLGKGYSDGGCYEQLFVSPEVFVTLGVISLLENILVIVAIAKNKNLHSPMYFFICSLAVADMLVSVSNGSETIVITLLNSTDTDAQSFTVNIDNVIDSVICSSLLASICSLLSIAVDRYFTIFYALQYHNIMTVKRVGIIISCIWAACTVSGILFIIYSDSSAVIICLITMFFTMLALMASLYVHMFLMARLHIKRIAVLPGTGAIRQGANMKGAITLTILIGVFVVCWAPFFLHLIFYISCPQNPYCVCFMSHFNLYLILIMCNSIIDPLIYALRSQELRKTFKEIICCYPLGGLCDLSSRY

Melanocortin receptor 4 [7] = biological target: T1, Melanocortin receptor 4; experiment: Agonist activity at human recombinant MC4 receptor expressed in BHK570 cells assessed as induction of […] accumulation in presence of 0.1% human serum albumin; type: functional, cell-based
Melanocortin receptor 5 = Melanocortin receptor 5 (Homo sapiens, UniProt P33032); experiment: Displacement of [125I]-NAD-alpha-MSH from human recombinant MC3 receptor human MC5 expressed in BHK570 cells after 1 hr in presence of ovalbumin; type: cell-based
Chain of Melanocortin receptor 5 (P33032 whole entry): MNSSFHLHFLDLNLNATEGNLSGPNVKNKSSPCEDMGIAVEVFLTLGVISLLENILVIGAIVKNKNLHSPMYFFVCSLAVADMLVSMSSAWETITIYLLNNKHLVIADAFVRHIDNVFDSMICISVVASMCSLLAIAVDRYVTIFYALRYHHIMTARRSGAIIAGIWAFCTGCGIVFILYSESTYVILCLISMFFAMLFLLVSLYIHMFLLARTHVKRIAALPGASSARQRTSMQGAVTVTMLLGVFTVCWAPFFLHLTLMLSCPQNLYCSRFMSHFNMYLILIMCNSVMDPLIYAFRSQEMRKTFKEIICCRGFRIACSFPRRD

Row | Compound | Activity (Rattus norvegicus [1]) [%] | Food intake relative to control (Rattus norvegicus [2]) [%] | Activity (Rattus norvegicus [3]) [%] | Activity [4] | Ki [5] [nM] | Ki (Melanocortin receptor 3) [nM] | Ki (Melanocortin receptor 4 [6]) [nM] | EC50 (Melanocortin receptor 4 [7]) [nM] | Ki (Melanocortin receptor 5) [nM]
1 | CCCC[C@H](NC(=O)[C@@H](N)CNC(=O)[C@H](Cc1cnc[nH]1)NC(=O)[C@H](CCC(N)=O)NC(=O)[C@H](CO)NC(=O)CNC(=O)COCCOCCNC(=O)CCCCCCCCCCCCCCCc1nnn[nH]1)C(=O)N[C@H]1CCC(=O)NCCCC[C@@H](C(N)=O)NC(=O)[C@H](Cc2c[nH]c3ccccc23)NC(=O)[C@H](CCCNC(=N)N)NC(=O)[C@@H](Cc2ccccc2)NC(=O)[C@@H]2C[C@@H](O)CN2C1=O | 54 | 81 | 82 | Active | – | – | – | – | –
2 | CCCC[C@H](NC(=O)[C@H](CNC(C)C)NC(=O)[C@H](Cc1cnc[nH]1)NC(=O)[C@H](CCC(N)=O)NC(=O)[C@H](CO)NC(=O)CNC(=O)COCCOCCNC(=O)CCCCCCCCCCCCCCCc1nnn[nH]1)C(=O)N[C@H]1CCC(=O)NCCCC[C@@H](C(N)=O)NC(=O)[C@H](Cc2c[nH]c3ccccc23)NC(=O)[C@H](CCCNC(=N)N)NC(=O)[C@@H](Cc2ccccc2)NC(=O)[C@@H]2C[C@@H](O)CN2C1=O | 40 | 72 | 50 | – | 270 | 13 | 0.26 | 15 | 3.4
3 | CCCC[C@H](NC(=O)[C@H](CN(C)C)NC(=O)[C@H](Cc1cnc[nH]1)NC(=O)[C@H](CCC(N)=O)NC(=O)[C@H](CO)NC(=O)CNC(=O)COCCOCCNC(=O)CCCCCCCCCCCCCCCc1nnn[nH]1)C(=O)N[C@H]1CCC(=O)NCCCC[C@@H](C(N)=O)NC(=O)[C@H](Cc2c[nH]c3ccccc23)NC(=O)[C@H](CCCNC(=N)N)NC(=O)[C@@H](Cc2ccccc2)NC(=O)[C@@H]2C[C@@H](O)CN2C1=O | 60 | 82 | 62 | – | 440 | 11 | 0.13 | 130 | 2.9
4 | CCCC[C@H](NC(=O)[C@H](CO)NC(=O)[C@H](Cc1cnc[nH]1)NC(=O)[C@H](CCC(N)=O)NC(=O)[C@H](CO)NC(=O)CNC(=O)COCCOCCNC(=O)CCCCCCCCCCCCCCCc1nnn[nH]1)C(=O)N[C@H]1CCC(=O)NCCCC[C@@H](C(N)=O)NC(=O)[C@H](Cc2c[nH]c3ccccc23)NC(=O)[C@H](CCCNC(=N)N)NC(=O)[C@@H](Cc2ccccc2)NC(=O)[C@@H]2C[C@@H](O)CN2C1=O | 56 | 92 | 79 | – | 1200 | 67 | 0.2 | 170 | 15
5 | CCCCCCCCCCCCCCCC(=O)NCC(=O)NCC(=O)NCC(=O)NCC(=O)NCC(=O)N[C@@H](CCCC)C(=O)N[C@H]1CCC(=O)NCCCC[C@@H](C(N)=O)NC(=O)[C@H](Cc2c[nH]c3ccccc23)NC(=O)[C@H](CCCNC(=N)N)NC(=O)[C@@H](Cc2ccccc2)NC(=O)[C@@H]2C[C@@H](O)CN2C1=O | 76 | 94 | 110 | – | 130 | 8 | 0.33 | 1 | 3
6 | CCCC[C@H](NC(=O)[C@H](CCC(=O)O)NC(=O)[C@H](CCC(=O)O)NC(=O)[C@H](CCC(=O)O)NC(=O)[C@H](CCC(=O)O)NC(=O)CNC(=O)COCCOCCNC(=O)CCCCCCCCCCCCCCCc1nnn[nH]1)C(=O)N[C@H]1CCC(=O)NCCCC[C@@H](C(N)=O)NC(=O)[C@H](Cc2c[nH]c3ccccc23)NC(=O)[C@H](CCCNC(=N)N)NC(=O)[C@@H](Cc2ccccc2)NC(=O)[C@@H]2C[C@@H](O)CN2C1=O | – | – | – | – | > 10000 | 1600 | 250 | – | 710
7 | CCCC[C@H](NC(=O)[C@H](CO)NC(=O)[C@H](CCCCN=C(N)N)NC(=O)[C@H](CCC(N)=O)NC(=O)[C@H](CO)NC(=O)CNC(C)=O)C(=O)N[C@H]1CCC(=O)NCCCC[C@@H](C(N)=O)NC(=O)[C@H](Cc2c[nH]c3ccccc23)NC(=O)[C@H](CCCN=C(N)N)NC(=O)[C@@H](Cc2ccccc2)NC(=O)[C@@H]2C[C@@H](O)CN2C1=O | – | – | – | – | 73 | 22 | 1 | 0.47 | 4.3
8 | CCCC[C@H](NC(=O)[C@H](CO)NC(=O)[C@H](Cc1cnc[nH]1)NC(=O)[C@H](CCC(N)=O)NC(=O)[C@H](CO)NC(=O)CNC(C)=O)C(=O)N[C@H]1CCC(=O)NCCCC[C@@H](C(N)=O)NC(=O)[C@H](Cc2c[nH]c3ccccc23)NC(=O)[C@H](CCCNC(=N)N)NC(=O)[C@@H](Cc2ccccc2)NC(=O)[C@@H]2C[C@@H](O)CN2C1=O | 99 | 103 | 55 | – | 200 | 45 | 4.6 | 2 | 5.1
9 | CCCCCCCCCCCCCCCC(=O)NCC(=O)N[C@@H](CO)C(=O)N[C@@H](CCC(N)=O)C(=O)N[C@@H](Cc1cnc[nH]1)C(=O)N[C@@H](CO)C(=O)N[C@@H](CCCC)C(=O)N[C@H]1CCC(=O)NCCCC[C@@H](C(N)=O)NC(=O)[C@H](Cc2c[nH]c3ccccc23)NC(=O)[C@H](CCCNC(=N)N)NC(=O)[C@@H](Cc2ccccc2)NC(=O)[C@@H]2C[C@@H](O)CN2C1=O | 58 | 81 | 63 | – | 8 | 2.5 | 0.12 | 0.17 | 1.6
10 | CCCC[C@H](NC(=O)[C@H](CCC(=O)O)NC(=O)[C@H](CCCN=C(N)N)NC(=O)[C@H](CCC(=O)O)NC(=O)[C@H](CCC(=O)O)NC(=O)CNC(=O)COCCOCCNC(=O)CCCCCCCCCCCCCCCc1nnn[nH]1)C(=O)N[C@H]1CCC(=O)NCCCC[C@@H](C(N)=O)NC(=O)[C@H](Cc2c[nH]c3ccccc23)NC(=O)[C@H](CCCN=C(N)N)NC(=O)[C@@H](Cc2ccccc2)NC(=O)[C@@H]2C[C@@H](O)CN2C1=O | – | – | – | – | > 10000 | 1100 | 35 | 270 | 270
11 | CCCC[C@H](NC(=O)[C@H](CCC(=O)O)NC(=O)[C@H](Cc1c[nH]cn1)NC(=O)[C@H](CCC(=O)O)NC(=O)[C@H](CCC(=O)O)NC(=O)CNC(=O)COCCOCCNC(=O)CCCCCCCCCCCCCCCc1nnn[nH]1)C(=O)N[C@H]1CCC(=O)NCCCC[C@@H](C(N)=O)NC(=O)[C@H](Cc2c[nH]c3ccccc23)NC(=O)[C@H](CCCNC(=N)N)NC(=O)[C@@H](Cc2ccccc2)NC(=O)[C@@H]2C[C@@H](O)CN2C1=O | 79 | 88 | 75 | – | 8100 | 450 | 7.8 | – | 110
12 | CCCC[C@H](NC(=O)[C@H](CN)NC(=O)[C@H](Cc1cnc[nH]1)NC(=O)[C@H](CCC(N)=O)NC(=O)[C@H](CO)NC(=O)CNC(=O)COCCOCCNC(=O)CCCCCCCCCCCCCCCc1nnn[nH]1)C(=O)N[C@H]1CCC(=O)NCCCC[C@@H](C(N)=O)NC(=O)[C@H](Cc2c[nH]c3ccccc23)NC(=O)[C@H](CCCN=C(N)N)NC(=O)[C@@H](Cc2ccccc2)NC(=O)[C@@H]2C[C@@H](O)CN2C1=O | – | – | – | – | 400 | 42 | 0.17 | 62 | 10
13 | CCCC[C@H](NC(=O)[C@H](CCCNC(=N)N)NC(=O)[C@H](Cc1cnc[nH]1)NC(=O)[C@H](CCC(N)=O)NC(=O)[C@H](CO)NC(=O)CNC(=O)COCCOCCNC(=O)CCCCCCCCCCCCCCCc1nnn[nH]1)C(=O)N[C@H]1CCC(=O)NCCCC[C@@H](C(N)=O)NC(=O)[C@H](Cc2c[nH]c3ccccc23)NC(=O)[C@H](CCCNC(=N)N)NC(=O)[C@@H](Cc2ccccc2)NC(=O)[C@@H]2C[C@@H](O)CN2C1=O | 51 | 83 | 46 | – | 44 | 27 | 0.08 | 4.7 | 3
14 | CCCCCCCCCCCCCCCC(=O)NCC(=O)N[C@@H](CO)C(=O)N[C@@H](CCC(N)=O)C(=O)N[C@@H](CCCCNC(=N)N)C(=O)N[C@@H](CO)C(=O)N[C@@H](CCCC)C(=O)N[C@H]1CCC(=O)NCCCC[C@@H](C(N)=O)NC(=O)[C@H](Cc2c[nH]c3ccccc23)NC(=O)[C@H](CCCNC(=N)N)NC(=O)[C@@H](Cc2ccccc2)NC(=O)[C@@H]2C[C@@H](O)CN2C1=O | 57 | 82 | 71 | – | 3.2 | 2 | 0.37 | 0.04 | 0.47
15 | CCCC[C@H](NC(=O)[C@@H](N)CNC(=O)[C@H](Cc1cnc[nH]1)NC(=O)[C@H](CCC(N)=O)NC(=O)[C@H](CO)NC(=O)CNC(=O)COCCOCCNC(=O)CCCCCCCCCCCCCCCc1nnn[nH]1)C(=O)N[C@H]1CCC(=O)NCCCC[C@@H](C(N)=O)NC(=O)[C@H](Cc2c[nH]c3ccccc23)NC(=O)[C@H](CCCN=C(N)N)NC(=O)[C@@H](Cc2ccccc2)NC(=O)[C@@H]2C[C@@H](O)CN2C1=O | – | – | – | – | 700 | 121 | 0.17 | 85 | 40
